Test results taken from patent publication US20160214974A1 (SYNGENTA PARTICIPATIONS AG, priority 2013, published 2016).
Like-named read-outs stand apart in the source and are kept apart here.

What was measured:
[1] = test system: Bemisia tabaci (Cotton White Fly); test: Activity against Bemisia tabaci, cotton leaf discs sprayed (Example B3); format: in vivo; conditions: foliar, 144 h, read-out: control of Bemisia tabaci (mortality)
Method: Activity Against Bemisia tabaci (Cotton White Fly)
Cotton leaf discs were placed on agar in a 24-well microtiter plate and sprayed with test solutions at an application rate of 200 ppm. After drying, the leaf discs were infested with 12 to 18 adults. After an incubation period of 6 days after infestation, samples were checked for mortality.

[2] = test system: Myzus persicae (Green Peach Aphid); test: Activity against Myzus persicae, sunflower leaf discs sprayed (Example B1); format: in vivo; conditions: foliar, 144 h, read-out: control of Myzus persicae (mortality)
Method: (§1) Activity Against Myzus persicae (Green Peach Aphid)
Sunflower leaf discs were placed on agar in a 24-well microtiter plate and sprayed with the test solutions at an application rate of 200 ppm. After drying, the leaf discs were infested with an aphid population of mixed ages. After an incubation period of 6 days, samples were checked for mortality.

[3] = test system: Q-biotype strain of Bemisia tabaci (Neonicotinoid resistant); test: Control of neonicotinoid and pyrethroid resistant tobacco whitefly (Example B4 b); format: in vivo; conditions: 72 h, read-out: control of the Q-biotype (Neonicotinoid resistant) strain of Bemisia tabaci
[4] = test system: Myzus persicae (Green Peach Aphid); test: Activity against Myzus persicae, pea seedlings with roots in test solution (Example B2); format: in vivo; conditions: 144 h, read-out: control of Myzus persicae (mortality)
Text: as §1
Pea seedlings, infested with an aphid population of mixed ages, were placed with the roots directly in the test solutions at an application rate of 24 ppm. 6 days after introduction, samples were checked for mortality.

[5] = cotton leaf discs sprayed at 200 ppm, adults, 6 days
[6] = sunflower leaf discs sprayed at 200 ppm, mixed age aphids, 6 days

SMILES | mortality at 200 ppm [2, 6] [%] | mortality at 200 ppm [1] [%] | mortality at 200 ppm [2] [%] | pest or weed control at 200 ppm ([3]; 200 ppm) [%] | mortality at 24 ppm [4] [%] | further results
NC(=S)[C@@]1(c2cncc(Br)c2)C[C@H]2C=C[C@@H](C1)N2 [E.015, (1S,5R)-3-(5-bromo-3-pyridyl)-8-azabicyclo[3.2.1]oct-6-ene-3-carbothioamide] | ≥ 80 | – | – | – | – | mortality at 200 ppm [1, 5]: ≥ 80%
NC(=S)[C@@]1(c2cncc(C3CC3)c2)C[C@H]2CC[C@@H](C1)N2CC(F)(F)F [E.023] | ≥ 80 | – | – | – | – | –
NC(=S)[C@@]1(c2cncc(Br)c2)C[C@H]2CC[C@@H](C1)N2CC(F)(F)F [E.007, (1S,5R)-3-(5-bromo-3-pyridyl)-8-(2,2,2-trifluoroethyl)-8-azabicyclo[3.2.1]octane-3-carbothioamide] | – | ≥ 80 | ≥ 80 | – | – | –
N#C/N=C1\SCCN1Cc1ccc(Cl)nc1 [Thiacloprid, reference compound] | – | – | – | – | – | pest or weed control at 200 ppm [3]: < 80%
NC(=S)[C@@]1(c2cncc(Cl)c2)C[C@H]2CC[C@@H](C1)N2CC(F)(F)F [E.002, (1S,5R)-3-(5-chloro-3-pyridyl)-8-(2,2,2-trifluoroethyl)-8-azabicyclo[3.2.1]octane-3-carbothioamide] | – | ≥ 80 | ≥ 80 | – | – | pest or weed control at 200 ppm [3]: ≥ 80%
NC(=S)[C@@]1(c2cncc(Br)c2)C[C@H]2CC[C@@H](C1)N2 [E.010, (1R,5S)-3-(5-bromo-3-pyridyl)-8-azabicyclo[3.2.1]octane-3-carbothioamide] | ≥ 80 | – | – | – | – | mortality at 24 ppm ([4]; pea seedlings, roots in test solution at 24 ppm, 6 days): ≥ 80%; mortality at 200 ppm [1, 5]: ≥ 80%
NC(=S)[C@@]1(c2cncc(I)c2)C[C@H]2C=C[C@@H](C1)N2CC(F)F [E.039, (1 S,5R)-8-(2,2-difluoroethyl)-3-(5-iodo-3-pyridyl)-8-azabicyclo[3.2.1]oct-6-ene-3-carbothioamide] | – | ≥ 80 | ≥ 80 | ≥ 80 | ≥ 80 | –
C=CCN1[C@@H]2C=C[C@H]1C[C@](C(N)=S)(c1cncc(I)c1)C2 [E.063, (1R,5S)-8-allyl-3-(5-iodo-3-pyridyl)-8-azabicyclo[3.2.1]oct-6-ene-3-carbothioamide] | – | ≥ 80 | ≥ 80 | ≥ 80 | ≥ 80 | –
NC(=S)[C@@]1(c2cncc(F)c2)C[C@H]2C=C[C@@H](C1)N2CC(F)F [E.071, (1R,5S)-8-(2,2-difluoroethyl)-3-(5-fluoro-3-pyridyl)-8-azabicyclo[3.2.1]oct-6-ene-3-carbothioamide] | – | ≥ 80 | ≥ 80 | ≥ 80 | ≥ 80 | –
NC(=S)[C@@]1(c2cncc(Br)c2)C[C@H]2C=C[C@@H](C1)N2CCCC(F)(F)F [E.008, (1R,5S)-3-(5-bromo-3-pyridyl)-8-(4,4,4-trifluorobutyl)-8-azabicyclo[3.2.1]oct-6-ene-3-carbothioamide] | – | ≥ 80 | ≥ 80 | ≥ 80 | ≥ 80 | –
C=C(Cl)CN1[C@@H]2C=C[C@H]1C[C@](C(N)=S)(c1cncc(Br)c1)C2 [E.013, (1R,5S)-3-(5-bromo-3-pyridyl)-8-(2-chloroallyl)-8-azabicyclo[3.2.1]oct-6-ene-3-carbothioamide] | – | ≥ 80 | ≥ 80 | ≥ 80 | – | –
NC(=S)[C@@]1(c2cncc(I)c2)C[C@H]2C=C[C@@H](C1)N2 [E.034, (1S,5R)-3-(5-iodo-3-pyridyl)-8-azabicyclo[3.2.1]oct-6-ene-3-carbothioamide] | ≥ 80 | – | – | – | – | mortality at 200 ppm [1, 5]: ≥ 80%
NC(=S)[C@@]1(c2cncc(I)c2)C[C@H]2CC[C@@H](C1)N2CC(F)F [E.072, (1 S,5R)-8-(2,2-difluoroethyl)-3-(5-iodo-3-pyridyl)-8-azabicyclo[3.2.1]octane-3-carbothioamide] | – | ≥ 80 | ≥ 80 | – | ≥ 80 | pest or weed control at 200 ppm [3]: ≥ 80%
C#Cc1cncc([C@]2(C(N)=S)C[C@H]3C=C[C@@H](C2)N3CC(F)(F)F)c1 [E.070, (1R,5S)-3-(5-ethynyl-3-pyridyl)-8-(2,2,2-trifluoroethyl)-8-azabicyclo[3.2.1]oct-6-ene-3-carbothioamide] | ≥ 80 | – | – | – | – | –
C=C(Cl)CN1[C@@H]2CC[C@H]1C[C@](C(N)=S)(c1cncc(Br)c1)C2 [E.006, (1S,5R)-3-(5-bromo-3-pyridyl)-8-(2-chloroallyl)-8-azabicyclo[3.2.1]octane-3-carbothioamide] | – | ≥ 80 | ≥ 80 | – | ≥ 80 | pest or weed control at 200 ppm [3]: ≥ 80%
C[Si](C)(C)C#Cc1cncc([C@]2(C(N)=S)C[C@H]3C=C[C@@H](C2)N3CC(F)(F)F)c1 [E.068, (1R,5S)-8-(2,2,2-trifluoroethyl)-3-[5-(2-trimethylsilylethynyl)-3-pyridyl]-8-azabicyclo[3.2.1]oct-6-ene-3-carbothioamide] | ≥ 80 | – | – | – | – | –
C=C(Cl)CN1[C@@H]2C=C[C@H]1C[C@](C(N)=S)(c1cncc(C#N)c1)C2 [E.012, (1 S,5R)-8-(2-chloroallyl)-3-(5-cyano-3-pyridyl)-8-azabicyclo[3.2.1]oct-6-ene-3-carbothioamide] | – | – | – | ≥ 80 | ≥ 80 | –
CC(C)(C)OC(=O)N1[C@@H]2CC[C@H]1C[C@](C(N)=S)(c1cncc(Br)c1)C2 | – | – | – | – | – | melting point: 228 to 230 °C
NC(=S)[C@@]1(c2cncc(Cl)c2)C[C@H]2C=C[C@@H](C1)N2CC(F)F [E.001, (1R,5S)-3-(5-chloro-3-pyridyl)-8-(2,2-difluoroethyl)-8-azabicyclo[3.2.1]oct-6-ene-3-carbothioamide] | – | ≥ 80 | ≥ 80 | ≥ 80 | ≥ 80 | –
O=[N+]([O-])NC1=NCCN1Cc1ccc(Cl)nc1 [Imidacloprid, reference compound] | – | – | – | – | – | pest or weed control at 200 ppm [3]: < 80%
N#Cc1cncc([C@]2(C(N)=S)C[C@H]3CC[C@@H](C2)N3CC(F)(F)F)c1 [E.009, (1S,5R)-3-(5-cyano-3-pyridyl)-8-(2,2,2-trifluoroethyl)-8-azabicyclo[3.2.1]octane-3-carbothioamide] | – | ≥ 80 | ≥ 80 | – | – | pest or weed control at 200 ppm [3]: ≥ 80%
NC(=S)[C@@]1(c2cncc(I)c2)C[C@H]2C=C[C@@H](C1)N2CC(F)(F)F [E.060, (1R,5S)-3-(5-iodo-3-pyridyl)-8-(2,2,2-trifluoroethyl)-8-azabicyclo[3.2.1]oct-6-ene-3-carbothioamide] | ≥ 80 | – | – | – | – | mortality at 200 ppm [1, 5]: ≥ 80%
